Experimental data from patent US20200016118A1, “HDAC INHIBITOR IN COMBINATION WITH VEGF/VEGFR INTERACTION FOR CANCER THERAPY BASED ON PLATELET COUNT” (4SC AG, priority 2017, published 2020).

Test system: advanced HCC
Assay: Phase I/II trial (Phase II part) of resminostat in combination with sorafenib versus sorafenib alone, first-line, overall survival by baseline platelet count
Assay type: in vivo, human
Method: A Phase I/II trial investigating resminostat in the indication of hepatocellular cancer (HCC) was conducted. The study was an open-label, multi-center Phase I/II study in patients with advanced HCC previously untreated with systemic chemotherapy (first-line therapy) to determine the MTD and to evaluate safety and efficacy of resminostat in combination with sorafenib. The study was conducted in Japan and Korea. The main eligibility criteria included a performance status of ECOG 0-1, adequate hepatic, renal, cardiac and bone marrow function and a life expectancy of more than 12 weeks.
In the Phase II part, a total of 170 patients were enrolled. Patients were randomly allocated to either the combination group (86 patients) or the monotherapy group (84 patients) at the RD determined from phase I. Randomization was performed with the minimization method using the following 2 factors as stratification factors: study site; and vascular invasion (presence or absence). The trial is registered at www.clinicaltrials.jp (Identifier: JapicCTI-132124) and www.clinicalTrials.gov (NCT02400788). Overall Survival (OS) were evaluated by the Kaplan-Meier method. A point estimate of the hazard ratio was calculated for each subgroup categorized by baseline platelet level as well as the 95% confidence interval of the estimate.
Treatment regimen: Mono group: A cycle was defined as 14 days. Sorafenib (800 mg) was given daily. Combination group: A cycle was defined as 14 days. Sorafenib (800 mg) was given daily. Resminostat (400 mg) was given daily on Days 1 to 5 and suspended on Days 6 to 14.
Blood was collected into a blood collection tubes precharged with EDTA-2K and then immediately inverted 4-5 times to mix. The mixed sample was stored refrigerated for further analysis.
Platelet count analysis was conducted with the Sheath Flow DC Detection method (Sysmex, Kobe, Japan). A method is described in detail in WALTERS J., GARRITY P. (2000): Performance Evaluation of the Sysmex XE-2100 Hematology Analyzer; Laboratory Hematology 6: 83-92. […]

CNC(=O)c1cc(Oc2ccc(NC(=O)Nc3ccc(Cl)c(C(F)(F)F)c3)cc2)ccn1 [sorafenib, 4-[4-[[4-chloro-3-(trifluoromethyl)phenyl]carbamoylamino]phenoxy]-N-methyl-pyridine-2-carboxamide]
overall survival (OS), in words (patients with platelet count of about 150000 platelets/μL or above compared to below about 150000 (FIG. 1)): shorter overall survival | median overall survival (mOS) (patients with platelet count ≥151×10^3/μL (median) at baseline): 5.1 months | median overall survival (mOS) (patients with platelet level below median (<151×10^3/μL)): 17.5 months
